Reference: PMC10893103, “Cyclodextrin-Enabled Enantioselective Complexation Study of Cathinone Analogs” (Molecules, 2024)

experiment: Affinity capillary electrophoresis (ACE), pH 7.4; details: 30 mM phosphate buffer pH 7.4, 25 °C, 15 kV
From the text: To assess the CD complex formation capability of the five cathinone derivatives, we devised a screening ACE method tailored to closely mimic physiological conditions. In a preliminary study, the ACE conditions were optimized regarding the type, pH, and concentration of the background electrolyte, the applied voltage, and the injection parameters. […] In order to avoid high Joule heat generation, sufficiently low voltage should be used; thus, after registering the Ohm plot (I-U plot), it was set to 15 kV. Throughout our ACE measurements, corrections for viscosity and ionic strength were systematically implemented to ensure precise determination of complex stability constants.
The CE experiments were performed on a HP ^3DCE and on an Agilent 7100 instrument (Agilent Technologies, Waldbronn, Germany) equipped with a photodiode array detector and the Chemstation software for data handling. Untreated fused silica capillaries (50 µm id, 48.5 cm total, 40 cm effective length) were purchased from Agilent. Conditioning of new capillary was conducted by flushing with 1 M NaOH followed by 0.1 M NaOH and water for 30 min each. Prior to all runs, the capillary was preconditioned by rinsing with BGE (2 min). The temperature of the capillary was set to 25 °C. UV detection was performed at 215 nm, and 15–25 kV voltage was applied. Samples were injected hydrodynamically (150 mbar·sec, optimized in the 50–500 mbar·sec range). The CE-pH measurements were carried out applying 25 kV voltage and 200 mbar·sec injection.
The background electrolyte of the CE-pH measurements contained 25 mM Na2HPO4 and 25 mM Na2B4O7, and the appropriate pH was adjusted with hydrochloric acid. During the ACE measurements, 30 mM phosphate buffer pH 7.4 (30 mM Na2HPO4—NaOH) was used. The running buffer was 20 mM acetic acid adjusting with 1 M Tris the pH to 4.5 during the chiral screening experiments. The BGEs contained CDs at various concentrations (0.25–20 mM) in the ACE experiments and 1-5-10 mM in the chiral method optimization experiments.
Stock solutions of each cathinone analog (mephedrone, flephedrone, 4-MEC, butylone, and MDPV) were prepared separately in methanol (1 mg/ml), and appropriate dilutions with water were used to prepare sample solutions for the CE-pH titration and for the ACE studies applying DMSO as EOF marker, while their mixture was used during the chiral separation studies.
The simplest way to determine the mobility is from the migration times (tmax) read from the electropherograms from which the apparent mobility could be calculated, but more accurate mobility values could be obtained by the determination with the Haarhoff–van der Linde (HVL) function based on Equation (2). (2) HVLδ(t;a0,a1,a2,a3δ)=a0/a2a3δ2πexp[−1/2(t−a1/a2)^2]/1/exp(a3δ)−1+1/2[1+erf(t−a1/2a2)] where a0 is the area of the HVL function, a1 is the position of the Gaussian component, a2 is the standard deviation of the Gaussian component, and a3δ is the peak shape distortion. The application of the HVL function is necessary in the case of accurate ACE measurements because, in several cases, the peaks are distorted due to the complex formation, which makes reading the migration times and calculating the mobility more difficult and imprecise.
The most popular technique for quantifying the analyte–ligand interaction with CE is mobility shift ACE.

Molecule	4-MEC–CD complex stability constant, Kstab/Kstab1 (unresolved or first migrating enantiomer) [M⁻¹]	Butylone–CD complex stability constant, Kstab/Kstab1 (unresolved or first migrating enantiomer) [M⁻¹]	Flephedrone–CD complex stability constant, Kstab/Kstab1 (unresolved or first migrating enantiomer) [M⁻¹]	MDPV–CD complex stability constant, Kstab/Kstab1 (unresolved or first migrating enantiomer) [M⁻¹]	Mephedrone–CD complex stability constant, Kstab/Kstab1 (unresolved or first migrating enantiomer) [M⁻¹]	4-MEC–CD complex stability constant, Kstab2 (second migrating enantiomer) [M⁻¹]	MDPV–CD complex stability constant, Kstab2 (second migrating enantiomer) [M⁻¹]	Butylone–CD complex stability constant, Kstab2 (second migrating enantiomer) [M⁻¹]	Flephedrone–CD complex stability constant, Kstab2 (second migrating enantiomer) [M⁻¹]	Mephedrone–CD complex stability constant, Kstab2 (second migrating enantiomer) [M⁻¹]
sulfopropylated-γ-CD [SP-γ-CD]	70 ± 10	70 ± 10	< 10	140 ± 20	45 ± 4	–	–	–	–	–
dimethylated-β-CD [DIME-β-CD]	210 ± 20	–	60 ± 6	–	150 ± 15	270 ± 25	–	–	–	–
CO[C@H]1[C@H]2O[C@H]3[C@H](OS(=O)(=O)O)[C@@H](OC)[C@@H](O[C@H]4[C@H](OS(=O)(=O)O)[C@@H](OC)[C@@H](O[C@H]5[C@H](OS(=O)(=O)O)[C@@H](OC)[C@@H](O[C@H]6[C@H](OS(=O)(=O)O)[C@@H](OC)[C@@H](O[C@H]7[C@H](OS(=O)(=O)O)[C@@H](OC)[C@@H](O[C@H]8[C@H](OS(=O)(=O)O)[C@@H](OC)[C@@H](O[C@@H]([C@@H]1OS(=O)(=O)O)[C@@H](COS(=O)(=O)O)O2)O[C@@H]8COS(=O)(=O)O)O[C@@H]7COS(=O)(=O)O)O[C@@H]6COS(=O)(=O)O)O[C@@H]5COS(=O)(=O)O)O[C@@H]4COS(=O)(=O)O)O[C@@H]3COS(=O)(=O)O [HMDiSu-β-CD, heptakis-(2-O-methyl, 3,6-O-disulfo)-β-CD]	260 ± 10	265 ± 20	–	165 ± 25	–	–	–	–	–	–
COCC1OC2OC3C(COC)OC(OC4C(COC)OC(OC5C(COC)OC(OC6C(COC)OC(OC7C(COC)OC(OC8C(COC)OC(OC1C(OC)C2OC)C(OC)C8OC)C(OC)C7OC)C(OC)C6OC)C(OC)C5OC)C(OC)C4OC)C(OC)C3OC (stereo not drawn) [TRIME-β-CD, permethylated-β-CD]	60 ± 15	20 ± 2	< 10	40 ± 10	20 ± 3	–	–	–	–	–
OC[C@H]1O[C@@H]2O[C@H]3[C@H](O)[C@@H](O)[C@@H](O[C@H]4[C@H](O)[C@@H](O)[C@@H](O[C@H]5[C@H](O)[C@@H](O)[C@@H](O[C@H]6[C@H](O)[C@@H](O)[C@@H](O[C@H]7[C@H](O)[C@@H](O)[C@@H](O[C@H]8[C@H](O)[C@@H](O)[C@@H](O[C@H]1[C@H](O)[C@H]2O)O[C@@H]8CO)O[C@@H]7CO)O[C@@H]6CO)O[C@@H]5CN1CCCCC1)O[C@@H]4CO)O[C@@H]3CO [PIP-β-CD, 6-monodeoxy-6-piperidine-β-CD]	< 10	< 10	< 10	< 10	< 10	–	–	–	–	–
OC[C@H]1O[C@@H]2O[C@H]3[C@H](O)[C@@H](O)[C@@H](O[C@H]4[C@H](O)[C@@H](O)[C@@H](O[C@H]5[C@H](O)[C@@H](O)[C@@H](O[C@H]6[C@H](O)[C@@H](O)[C@@H](O[C@H]7[C@H](O)[C@@H](O)[C@@H](O[C@H]8[C@H](O)[C@@H](O)[C@@H](O[C@H]1[C@H](O)[C@H]2O)O[C@@H]8CO)O[C@@H]7CO)O[C@@H]6CO)O[C@@H]5CN1CCCC1)O[C@@H]4CO)O[C@@H]3CO [PYR-β-CD, 6-monodeoxy-6-pyrrolidine-β-CD]	215 ± 30	–	640 ± 145	105 ± 15	115 ± 20	–	430 ± 50	–	–	–
carboxymethylated-γ-CD [CM-γ-CD]	65 ± 8	140 ± 10	50 ± 9	160 ± 15	50 ± 8	70 ± 10	170 ± 17	170 ± 10	30 ± 5	60 ± 10
sulfobutyl-ether-γ-CD [SBE-γ-CD]	< 10	95 ± 15	100 ± 5	160 ± 20	70 ± 15	–	–	100 ± 15	–	65 ± 12
NC[C@H]1O[C@@H]2O[C@H]3[C@H](O)[C@@H](O)[C@@H](O[C@H]4[C@H](O)[C@@H](O)[C@@H](O[C@H]5[C@H](O)[C@@H](O)[C@@H](O[C@H]6[C@H](O)[C@@H](O)[C@@H](O[C@H]7[C@H](O)[C@@H](O)[C@@H](O[C@H]8[C@H](O)[C@@H](O)[C@@H](O[C@H]1[C@H](O)[C@H]2O)O[C@@H]8CO)O[C@@H]7CO)O[C@@H]6CO)O[C@@H]5CO)O[C@@H]4CO)O[C@@H]3CO [MA-β-CD, mono-(6-N-amino-6-deoxy)-β-CD]	180 ± 40	140 ± 25	425 ± 80	350 ± 60	225 ± 35	–	200 ± 30	340 ± 50	–	–
